Assays:
[1] = system: pentylenetetrazol-induced clonic seizures; assay: Subcutaneous pentylenetetrazol seizure test (scPTZ), rat; type: in vivo, Sprague-Dawley rats; settings: pentylenetetrazol 70 mg/kg s.c., test compound orally, read-out: Rat PTZ ED50, s.c.
Protocol: Methods to measure anticonvulsant activity: All tests were conducted by the Anticonvulsant Screening Program (ASP) of the National Institute of Neurological Disease and Stroke at the National Institutes of Health. The subcutaneous pentylenetetrazol (metrazol) seizure test (scPTZ). This model primarily identifies compounds that raise seizure threshold. The behavioral seizure produced is not typical of absence epilepsy but clonic in nature. With some minor exceptions, the pharmacological profile of the scPTZ seizure model is consistent with the human condition. The scPTZ test utilizes a dose of pentylenetetrazol (85 mg/kg in Carworth Farms No. 1 mice and 70 mg/kg in Sprague-Dawley rats). This produces clonic seizures lasting for a period of at least five seconds in 97 percent of animals tested. At the anticipated time of testing the convulsant is administered subcutaneously. The test compound is administered intraperitoneally in mice and orally in rats. Animals are observed over a 30 minute period. Absence of clonic spasms in the observed time period indicates a compound's ability to abolish the effect of pentylenetetrazol on seizure threshold (Swinyard E A. Laboratory evaluation of antiepileptic drugs: review of laboratory methods. Epilepsia, 1969, 10, 107-119).

Hippocampal Cultures [2] = assay: Neuroprotection from hydrogen peroxide (oxidative stress), CFDA assay; type: cell-based; settings: Rattus norvegicus; 10 μM hydrogen peroxide, hippocampal cultures, 4 hour test period; read-out: NP from Hydrogen Peroxide CFDA EC50
Excerpt: (§1) Cell cultures: All compounds are screened with dissociated hippocampal cultures derived from embryonic day 18 rats as the primary test system. With this preparation, primary neurons are used to test for toxicity as well as neuroprotection in a highly relevant experimental system to epilepsy. In brief, hippocampal tissue are obtained commercially through Brain Bits (Springfield, Ill.) and cultures prepared as previously described by Brewer (Brewer, G. J. Serum-free B27/neurobasal medium supports differentiated growth of neurons from the striatum, substantia nigra, septum, cerebral cortex, cerebellum and dentate gyms, J. Neurosci. Res. 1995, 42, 674-683). The hippocampal neurons are platted at low density (10,000 cell/well) in a 96-well format and maintained in serum-free medium consisting of Neurobasal Medium supplemented with B27 and GlutaMAX (Gibco). Pre-coated poly-L-lysine coated plates are used because of the preferential adherence and survival of hippocampal neurons on this matrix support.
(§2) Potent neuroprotection is the distinguishing characteristic that separates this program's anticonvulsants from all other commercial drugs for epilepsy. The experimental details and the rationale for the implemented assays are essential in differentiating these compounds from that of others. The central objective of all neuroprotective assays was their relevancy to excitotoxicity and oxidative stress related to epilepsy. Both the amount of glutamate and hydrogen peroxide used in the assays, as well as the time of treatment and duration of the experiment, were designed to be relevant to epilepsy. Further, all time parameters employed in these studies were empirically determined to be within the limits of reversible toxic events, yet using amounts of glutamate and hydrogen peroxide that were relevant to the disease. In regard to glutamate toxicity, a critical feature was the duration of treatment of the hippocampal neurons. The rational for using a short 5 min treatment with glutamate was based on the observation of Randall and Thayer (Randall, R. D.; Thayer, S. A. Glutamate-induced calcium transient triggers calcium overload and neurotoxicity in rat hippocampal neurons, J. Neurosci. 1992, 12, 1882-1895). […] The rationale is that this intense burst of glutamate and resulting calcium overload is relevant to seizures and therefore was important data to capture in the screening assay. The amount of glutamate (30 μM) employed in our screening was based on the basal levels of glutamate observed in microdialysis measurements of hippocampus from epileptogenic patients (Cavus et al. Decreased hippocampal volume on MRI is associated with increased extracellular glutamate in epilepsy patients, Epilepsia, 2008, 49, 1358-1366). In regard to hydrogen peroxide, the amount employed (10 μM) was detected in the hippocampus of rats after kainate-induced status epilepticus (Jarrett et. al., Mitochondrial DNA damage and impaired base excision repair during epileptogenesis, Neurobiol. Dis. 2008, 30, 130-138). To produce neural damage and death with these amounts of glutamate and hydrogen peroxide, the cultures were changed to a medium with significant depletion of antioxidant components in the defined medium supplement B-27 just prior to treatment with the compounds. This was performed to obtain a significant and reproducible toxic signal in the hippocampal neurons and because loss of antioxidant control may be a component of epileptogenesis (Waldbaum and Patel, Mitochondria, oxidative stress and temporal lobe epilepsy, Epilepsy Res. 2010 88, 23-45; Wu et al., Mitochondrial DNA mutation-elicited oxidative stress, oxidative damage, and altered gene expression in cultured cells of patients with MERRF syndrome, Mol. Neurobiol. 2010, 41, 256-266). Neuroprotection studies with hydrogen peroxide were conducted with cultures that were between day 12 and day 18. Studies of neuroprotection glutamate were conducted between day 19 and day 22. […]

Hippocampal Cultures [3] = assay: Neuroprotection from glutamate excitotoxicity, CFDA (neuronal viability) assay; type: cell-based; settings: Rattus norvegicus; 30 μM glutamate 5 min, hippocampal cultures, 4 hour test period; read-out: NP from Glutamate CFDA EC50
Excerpt: as §1
as §2, with “compounds.” for “compounds. This was performed to obtain a significant and reproducible toxic signal in the hippocampal neurons and because loss of antioxidant control may be a component of epileptogenesis (Waldbaum and Patel, Mitochondria, oxidative stress and temporal lobe epilepsy, Epilepsy Res. 2010 88, 23-45; Wu et al., Mitochondrial DNA mutation-elicited oxidative stress, oxidative damage, and altered gene expression in cultured cells of patients with MERRF syndrome, Mol. Neurobiol. 2010, 41, 256-266). Neuroprotection studies with hydrogen peroxide were conducted with cultures that were between day 12 and day 18. Studies of neuroprotection glutamate were conducted between day 19 and day 22.”

NS(=O)(=O)NCC(F)(F)c1ccccc1F [Example 1, 2,2-Difluoro-2-(2-fluorophenyl)-ethyl-1-sulfamide]
ED50 [1]: 107 mg/kg | EC50 (Hippocampal Cultures [2]): 1 nM | EC50 (Hippocampal Cultures [3]): 1 nM

NS(=O)(=O)NCC(F)(F)c1ccccc1Cl [Example 2, 2,2-Difluoro-2-(2-chlorophenyl)-ethyl-1-sulfamide]
ED50 [1]: 48 mg/kg | EC50 (Hippocampal Cultures [2]): 0.1 nM | EC50 (Hippocampal Cultures [3]): 10 nM
